Test results published in PMC10368370, “Development of o-aminobenzamide salt derivatives for improving water solubility and anti-undifferentiated gastric cancer” (Frontiers in Pharmacology, 2023).
“Also recorded” adds a separate entry of the source.

Legend:
HGC-27 cells = assay: MTT cytotoxicity / anti-proliferation assay; type: cell-based, human; conditions: HGC-27, MTT, 72 h; read-out: IC50, cancer cell viability
Description: Undifferentiated human gastric cancer cell line (HGC-27) was purchased from the China Center for Type Collection (CCTCC, China) and used with 10% Foetal Bovine Serum (FBS, Gemini, Bio-Product, CA, United States), 1% penicillin streptomycin (PS) and 89% 1,640 medium ([…]) for culture. All cells were incubated at 37°C in a constant temperature incubator containing 95% air and 5% CO2.
To evaluate the cytotoxicity of F8 and related organic salts on HGC-27 cells, MTT analysis was performed. HGC-27 cells were digested with trypsin, then cells were spread into 96-well plates at a density of 3,000 cells/well and incubated for 12–16 h. After 12 h, the medium in 96-well plates was replaced with compounds containing 1, 0.5, 0.25, 0.125, 0.062, 0.0312 μM for another 72 h. Three days later, 20 μL MTT solution was added and incubated at 37°C for 4 h. Then 150 μL DMSO solution was added to each well after the fluid was removed, and the absorbance was detected by microplate reader. The compound dissolved in DMSO was added to the cell medium so that the final concentration of DMSO was less than 0.4%.
Infinite proliferation is one of the most prominent features of cancer cells, therefore, we evaluated the anti-proliferation activity of compounds F8 and related organic salts against human gastric carcinoma HGC-27 via MTT assay.

HGC-27 xenograft = assay: HGC-27 tumor xenograft model; type: in vivo, BALB/c nude mice; conditions: p.o., bid; for tumor growth inhibition (TGI): 14 days, HGC-27 xenograft
Description: 4-week-old male BALB/c nude mice weighing 18g–22 g were injected with 100 μL HGC-27 cells (2 × 10^6 cells) to establish an undifferentiated gastric cancer model.
(A) Tumor volumes plotted as mean ± SEM. (B) Mice weight curve during treatment plotted as mean ± SD. (C,D) Tumor weight and size on the final day.

MDA-MB-468 = assay: MTT cytotoxicity / anti-proliferation assay; type: cell-based; conditions: MDA-MB-468, MTT, 72 h; read-out: IC50, cancer cell viability
Pharmacokinetic study = type: in vivo, SD rats
Description: 7–8-week Male SD rats weighing 180–220 g were allowed for this experiment. The rats were fasted 12 h except for water. The solution was administered to rats by intravenous injection of 10% ethanol +10% solutol as solvent and intragastric injection of 5% castor oil +5% solutol as solvent. The dose concentration was 8 mg/mL for intravenous injection and 10 mg/mL for gavage.
Twelve male SD rats were divided into 4 groups with 3 rats in each group. Group 1 was F8-intravenous injection group, the dose was 20 mg/kg; Group 2 was F8- intragastric administration group, the dose was 100 mg/kg; Group 3 was F8·2HCl-intragastric administration group, the dose was 100 mg/kg. Blank blood was collected before administration, and blood was collected at predetermined time points after administration:
Intravenous injection group: before administration, 2 min, 5 min, 15 min, 30 min, 1 h, 2 h, 4 h, 8 h, 12 h, 24 h. Intragastric administration group: Before administration, 5 min, 15 min, 30 min, 1 h, 2 h, 4 h, 6 h, 8 h, 12 h, 24 h. About 0.5 mL of blood was collected and placed in an EDTA-K2 tube at […]. The plasma was centrifuged and stored at −80°C. The samples were detected by liquid-mass spectrometry analysis system. The chromatographic column used was ODS-C18 (4.6 × 50 mm, 3 µm). The chromatographic conditions were as follows: Mobile phase A is aqueous phase, […] (including 0.1% formic acid); Mobile phase B is organic, 95% acetonitrile (containing 0.1% formic acid). Flow rate of 0.4 mL/min, column temperature: room temperature, according to the drug plasma concentration data, calculated pharmacokinetic parameters using DAS 2.0 software.
After oral administration, drugs need to go through four stages, namely, absorption, distribution, metabolism and excretion. However, the changes in solubility of drugs after salting only affect the absorption stage. Since absorption is accompanied by a dissolution process, the water solubility and dissolution rate of drugs are the main factors that determine their absorption, and then affect their oral bioavailability ([Elder et al., 2013]). Under the stimulation of cell activity and increased solubility, pharmacokinetic experiments were carried out to understand the drug exposure and provide a basis for further druggability of compound F8. In this study, compound F8 and F8·2HCl were administered in two different ways: tail vein injection (20 mg/kg) and gavage (100 mg/kg), and pharmacokinetic parameters were measured in Sprague-Dawley (SD) rats (Figures 3, 4).

MCF-7 = assay: MTT cytotoxicity / anti-proliferation assay; type: cell-based; conditions: MCF-7, MTT, 72 h; read-out: IC50, cancer cell viability
HCC-1806 = assay: MTT cytotoxicity / anti-proliferation assay; type: cell-based; conditions: HCC-1806, MTT, 72 h; read-out: IC50, cancer cell viability
Ki-67 = assay: Immunohistochemical analysis of HGC-27 xenograft tumor; type: in vivo; conditions: vs blank group
Description: (§1) Then, immunohistochemical analysis was performed on the tumor of the HGC-27 xenograft tumor model. It is known that cyclin-dependent kinase 2 (CDK2) and CDK inhibitor p21 play pivotal parts in cell cycle regulation, while both downregulation of CDK2 or upregulation of p21 lead to cell cycle arrest ([[…] et al., 2019]; [Sturmlechner et al., 2021]). […] Ki-67 is an antigen associated with proliferating cells, which is usually positively correlated with tumor growth rate ([Menon et al., 2019]). […] Cleaved Caspase-3 is a pro-apoptotic protein, the higher the expression of this protein, the stronger […] ([Wei et al., 2020]). […] E-cadherin which is a type of cell surface transmembrane glycoprotein has an important influence on the cell-cell adhesion function. […] Representative tumor images of IHC analysis stained by CDK2, Cleaved Caspase-3, E-cadherin, KI-67 and p21. Magnification: × 400.

Cleaved Caspase-3 = assay: as above; type: in vivo; conditions: vs blank group
Description: as §1

E-cadherin = assay: as above; type: in vivo; conditions: vs blank group
Description: as §1

p21 = assay: as above; type: in vivo; conditions: vs blank group
Description: as §1

CDK2 = assay: as above; type: in vivo; conditions: vs blank group
Description: as §1

[1] = Solubility in aqueous solution (pure water, normal saline); type: physicochemical
SK-Hep-1 = assay: MTT cytotoxicity / anti-proliferation assay; type: cell-based; conditions: SK-Hep-1, MTT, 72 h; read-out: IC50, cancer cell viability
[2] = SD rats, 100 mg/kg, route ip (methods: intragastric), 100 mg/kg
[3] = SD rats, oral administration 100 mg/kg, 100 mg/kg

Question: Which results are given for `O=C(NCc1ccc(NC(=O)c2cc(F)ccc2N2CCCC2)cc1)OCc1cccnc1` [F8·2HCl]?
Answer: IC50 (HGC-27 cells): 250 ± 10 nM; tumor growth inhibition (TGI) (HGC-27 xenograft; 37.5 mg/kg): 60.6%; tumor growth inhibition (TGI) (HGC-27 xenograft; 75 mg/kg): 70.1%; body weight of mice vs control group (HGC-27 xenograft; 37.5 and 75 mg/kg, during treatment): no significant weight loss; tumor weight vs control group (HGC-27 xenograft; 37.5 and 75 mg/kg, final day): significant decrease in tumor weight; IC50 (MDA-MB-468): 1420 ± 190 nM; AUC (0-∞) (Pharmacokinetic study; [2]): 1.77 µg·h/mL; Cmax (Pharmacokinetic study; [2]): 0.58 µg/mL; T1/2 (Pharmacokinetic study; [2]): 3.63 h; Tmax (Pharmacokinetic study; [2]): 1.42 h; bioavailability (Pharmacokinetic study; SD rats, oral 100 mg/kg vs iv 20 mg/kg): 5.06%; area under the concentration-time curve (AUC0-t) (Pharmacokinetic study; [3]): 1.77 µg·h/mL; peak plasma concentration (Pharmacokinetic study; [3]): 0.58 µg/mL; half-life extension relative to F8 (Pharmacokinetic study; male, Sprague-Dawley, rat, plasma, po, 100 mg/kg, same oral dose, F8·2HCl vs F8): 60 min; increase of Tmax relative to F8 (Pharmacokinetic study; same oral dose, F8·2HCl vs F8): ~10 times; IC50 (MCF-7): 47.69 ± 0.15 µM; IC50 (HCC-1806): 16.2 ± 0.41 µM; expression of Ki-67 protein (IHC) (Ki-67): significantly decreased; expression of Cleaved Caspase-3 protein (IHC) (Cleaved Caspase-3): significantly upregulated; also recorded: increased; expression level of E-cadherin protein (IHC) (E-cadherin): increase the expression level; also recorded: increased; level of p21 protein (IHC) (p21): significantly upregulated; expression of CDK2 (IHC) (CDK2): declined dose-dependently; also recorded: significantly decreased; water solubility relative to compound F8 ([1]; F8·2HCl vs F8): more than 50 times; solubility in normal saline ([1]; normal saline, compared with pure water): not much different from pure water; Solubility in aqueous solution ([1]; pure water): more than 50 mg/mL; IC50 (SK-Hep-1): 9.37 ± 0.91 µM
